Assays:
[1] = tested on: human non-small cell lung cancer cell line NCI-H460; experiment: Cell proliferation inhibition test by sensitivity-enhancing to ionizing radiation (Cell Titer Glo); format: cell-based; conditions: concentration in which SER became 2, NCI-H460 cells, ionizing radiation 2 Gy, cultured 120 hour
Summary of the method: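 Radiosensitisation measured as SER, a ratio of Cell Titer Glo luminescence in irradiated vs unirradiated plates relative to DMSO; SER2, the concentration yielding SER 2, came from sigmoidal regression. Compound (0.1% DMSO) was given 24 h post-seeding, 2 Gy applied 30 min later, then 120 hour culture at 37° C.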

ATM = molecular target: T1, ATM (Homo sapiens, UniProt Q13315); experiment: ATM inhibition test (phosphorylation of Chk2 generated by ionizing radiation, AlphaScreen SureFire); format: cell-based; conditions: phosphorylated Chk2 in NCI-H460 cells, ionizing radiation 8Gy, 1 hour after test compound treatment; read-out: ATM inhibitory activity
T1 construct: detecting phosphorylation of Chk2 in a human non-small cell lung cancer cell line NCI-H460 (ATCC company); host or cells: NCI-H460 human non-small cell lung cancer cells
Summary of the method: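 NCI-H460 cells treated with compound for 1 hour, then irradiated with 8Gy and incubated 1 hour at 37° C. Phospho-Chk2 measured by AlphaScreen SureFire. Inhibition ratio calculated relative to untreated irradiated and non-irradiated wells.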

T1 sequence (Q13315 whole entry): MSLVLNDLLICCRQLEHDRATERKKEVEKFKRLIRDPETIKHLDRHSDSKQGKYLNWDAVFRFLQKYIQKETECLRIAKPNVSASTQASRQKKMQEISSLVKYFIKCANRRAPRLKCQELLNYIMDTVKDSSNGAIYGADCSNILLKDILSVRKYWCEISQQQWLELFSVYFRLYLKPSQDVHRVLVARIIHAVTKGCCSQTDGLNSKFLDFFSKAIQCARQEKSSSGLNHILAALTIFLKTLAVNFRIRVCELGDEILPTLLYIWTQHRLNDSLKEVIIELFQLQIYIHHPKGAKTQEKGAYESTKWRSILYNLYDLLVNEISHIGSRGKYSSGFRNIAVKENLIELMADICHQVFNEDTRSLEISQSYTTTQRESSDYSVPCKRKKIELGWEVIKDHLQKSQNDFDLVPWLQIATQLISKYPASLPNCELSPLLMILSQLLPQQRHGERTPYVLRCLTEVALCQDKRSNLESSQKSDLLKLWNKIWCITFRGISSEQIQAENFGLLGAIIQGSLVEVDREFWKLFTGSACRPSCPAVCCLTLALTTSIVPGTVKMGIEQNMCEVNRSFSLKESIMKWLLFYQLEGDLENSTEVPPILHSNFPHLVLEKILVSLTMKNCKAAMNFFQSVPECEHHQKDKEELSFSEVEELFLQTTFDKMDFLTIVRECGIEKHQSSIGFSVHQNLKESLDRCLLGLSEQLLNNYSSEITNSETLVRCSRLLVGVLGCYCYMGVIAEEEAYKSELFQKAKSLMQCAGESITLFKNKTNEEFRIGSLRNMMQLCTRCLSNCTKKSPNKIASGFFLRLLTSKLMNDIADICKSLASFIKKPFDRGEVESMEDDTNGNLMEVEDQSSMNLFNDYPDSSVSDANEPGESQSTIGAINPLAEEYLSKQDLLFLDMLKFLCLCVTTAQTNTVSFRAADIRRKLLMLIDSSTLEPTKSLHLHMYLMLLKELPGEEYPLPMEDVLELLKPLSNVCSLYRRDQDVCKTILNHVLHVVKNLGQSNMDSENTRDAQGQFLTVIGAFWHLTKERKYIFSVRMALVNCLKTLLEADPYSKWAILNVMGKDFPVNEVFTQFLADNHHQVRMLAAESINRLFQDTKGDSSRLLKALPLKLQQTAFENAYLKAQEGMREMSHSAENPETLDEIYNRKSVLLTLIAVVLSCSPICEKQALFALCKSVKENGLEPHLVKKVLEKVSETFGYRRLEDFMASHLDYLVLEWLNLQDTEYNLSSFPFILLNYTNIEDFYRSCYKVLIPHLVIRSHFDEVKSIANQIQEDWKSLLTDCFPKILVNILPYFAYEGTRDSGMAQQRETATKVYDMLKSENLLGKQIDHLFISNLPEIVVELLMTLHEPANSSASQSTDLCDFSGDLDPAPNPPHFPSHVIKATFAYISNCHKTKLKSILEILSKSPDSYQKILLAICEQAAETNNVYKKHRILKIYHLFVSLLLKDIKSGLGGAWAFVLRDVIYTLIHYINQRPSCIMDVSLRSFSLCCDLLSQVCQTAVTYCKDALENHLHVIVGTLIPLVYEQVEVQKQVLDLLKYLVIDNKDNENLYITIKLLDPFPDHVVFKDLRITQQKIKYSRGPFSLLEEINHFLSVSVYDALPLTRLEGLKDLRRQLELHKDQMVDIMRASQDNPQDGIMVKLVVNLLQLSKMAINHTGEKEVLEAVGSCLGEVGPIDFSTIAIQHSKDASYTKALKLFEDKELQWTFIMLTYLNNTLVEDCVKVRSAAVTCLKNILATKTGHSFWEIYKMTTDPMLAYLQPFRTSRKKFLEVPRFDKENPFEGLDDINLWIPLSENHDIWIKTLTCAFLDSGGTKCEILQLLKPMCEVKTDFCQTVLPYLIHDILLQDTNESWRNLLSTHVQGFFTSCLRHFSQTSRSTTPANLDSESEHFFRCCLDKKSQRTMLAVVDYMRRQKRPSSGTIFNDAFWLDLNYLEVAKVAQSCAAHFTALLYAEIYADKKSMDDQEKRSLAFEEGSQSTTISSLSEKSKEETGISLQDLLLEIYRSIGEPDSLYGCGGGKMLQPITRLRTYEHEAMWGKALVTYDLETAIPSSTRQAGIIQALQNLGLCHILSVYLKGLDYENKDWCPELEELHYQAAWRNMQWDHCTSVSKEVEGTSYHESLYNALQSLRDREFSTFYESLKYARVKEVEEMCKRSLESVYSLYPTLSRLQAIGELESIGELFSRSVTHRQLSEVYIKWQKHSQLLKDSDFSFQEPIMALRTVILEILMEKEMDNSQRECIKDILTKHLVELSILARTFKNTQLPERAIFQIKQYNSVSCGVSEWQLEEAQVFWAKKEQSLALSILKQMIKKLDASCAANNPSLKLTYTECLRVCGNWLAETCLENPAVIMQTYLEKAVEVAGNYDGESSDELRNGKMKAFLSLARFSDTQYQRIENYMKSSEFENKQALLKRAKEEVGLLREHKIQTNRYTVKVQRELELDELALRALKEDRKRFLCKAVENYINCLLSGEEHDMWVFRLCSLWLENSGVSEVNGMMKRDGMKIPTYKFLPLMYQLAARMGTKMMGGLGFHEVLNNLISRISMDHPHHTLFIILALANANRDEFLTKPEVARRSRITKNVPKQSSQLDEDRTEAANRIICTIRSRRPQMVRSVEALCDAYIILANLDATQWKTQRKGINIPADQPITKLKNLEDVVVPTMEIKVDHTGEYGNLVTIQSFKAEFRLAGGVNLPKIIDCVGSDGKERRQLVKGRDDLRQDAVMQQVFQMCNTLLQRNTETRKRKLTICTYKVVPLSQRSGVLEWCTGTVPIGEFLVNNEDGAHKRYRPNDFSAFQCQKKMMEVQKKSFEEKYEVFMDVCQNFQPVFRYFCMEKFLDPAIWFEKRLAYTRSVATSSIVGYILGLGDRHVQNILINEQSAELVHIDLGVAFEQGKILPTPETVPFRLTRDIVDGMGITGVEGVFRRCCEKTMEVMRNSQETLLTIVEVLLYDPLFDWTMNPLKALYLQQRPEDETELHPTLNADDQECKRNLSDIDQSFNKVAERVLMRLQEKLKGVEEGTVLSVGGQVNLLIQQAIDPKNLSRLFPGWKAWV

IC50 (ATM) [nM] | Structure (SMILES) | SER2 (concentration at which the radiation sensitivity-enhancement ratio reaches 2) ([1]; Homo sapiens, NCI-H460, 120 h) [nM] | SER2 (concentration at which the radiation sensitivity-enhancement ratio reaches 2) [1] [nM]
< 100 | Cc1cnc(C(C)Nc2ccc3c(c2)Cc2cccc(-c4cc(N5CCOCC5)cc(=O)[nH]4)c2O3)cn1 (single isomer, unassigned) [Example 2-14-90-2, 6-(7-((1-(5-methylpyrazin-2-yl)ethyl)amino)-9H-xanthen-4-yl)-4-morpholinopyridin-2(1H)-one] | < 100 | –
< 100 | Cc1ccnc(C(CO)Nc2ccc3c(c2)Sc2cccc(-c4cc(N5CCOCC5)cc(=O)[nH]4)c2S3)n1 (centres unmarked) [Example 1-12-90, 6-(7-((2-Hydroxy-1-(4-methylpyrimidin-2-yl)ethyl)amino)thianthren-1-yl)-4-morpholino pyridin-2(1H)-one] | 100 to 500 | –
< 100 | Cc1cccc(C(CCN(C)C)Nc2ccc3c(c2)Sc2cccc(-c4cc(N5CCOCC5)cc(=O)[nH]4)c2S3)n1 (centres unmarked) [Example 1-22-1, 6-(7-((3-(dimethylamino)-1-(6-methylpyridin-2-yl)propyl)amino)thianthren-1-yl)-4-morpholinopyridin-2(1H)-one] | 100 to 500 | –
< 100 | COc1cccc(CNc2ccc3c(c2)Sc2cccc(-c4cc(N5CCOCC5)cc(=O)[nH]4)c2O3)n1 [Example 4-8-18, 6-(8-(((6-Methoxypyridin-2-yl)methyl)amino)phenoxathiin-4-yl)-4-morpholino pyridin-2 (1H)-one] | 100 to 500 | –
< 100 | Cc1ccc(CNc2ccc3c(c2)Sc2cccc(-c4cc(N5CCOCC5)cc(=O)[nH]4)c2S3)nc1 [Example 1-12-13, 6-(7-(((5-Methylpyridin-2-yl)methyl)amino)thianthren-1-yl)-4-morpholino pyridin-2 (1H)-one] | 100 to 500 | –
< 100 | CC(Nc1ccc2c(c1)Sc1cccc(-c3cc(N4CCOCC4)cc(=O)[nH]3)c1S2)c1nccc(CF)n1 (centres unmarked) [Example 1-12-85, 6-(7-((1-(4-(Fluoromethyl)pyrimidin-2-yl)ethyl)amino)thianthren-1-yl)-4-morpholino pyridin-2(1H)-one] | < 100 | –
< 100 | COC(=O)C(Nc1ccc2c(c1)Sc1cccc(-c3cc(N4CCOCC4)cc(=O)[nH]3)c1S2)c1ccc(C)cn1 (centres unmarked) [Example 1-12-108, Methyl 2-(5-methylpyridin-2-yl)-2-((6-(4-morpholino-6-oxo-1,6-dihydropyridin-2-yl)thianthren-2-yl)amino) acetate] | 100 to 500 | –
< 100 | CC(Nc1ccc2c(c1)Sc1cccc(-c3cc(N4CCOCC4)cc(=O)[nH]3)c1S2)c1cc(C#N)ncn1 (single isomer, unassigned) [Example 1-12-146-1, 6-(1-((6-(4-morpholino-6-oxo-1,6-dihydropyridin-2-yl)thianthren-2-yl)amino)ethyl)pyrimidine-4-carbonitrile] | 100 to 500 | –

The next lines start with the molecule.

Structure (SMILES) | IC50 (ATM) [nM] | SER2 (concentration at which the radiation sensitivity-enhancement ratio reaches 2) ([1]; Homo sapiens, NCI-H460, 120 h) [nM] | SER2 (concentration at which the radiation sensitivity-enhancement ratio reaches 2) [1] [nM]
Cc1cccc(C(CN(C)C)Nc2ccc3c(c2)Sc2cccc(-c4cc(N5CCOCC5)cc(=O)[nH]4)c2S3)n1 (centres unmarked) [Example 1-22-3, 6-(7-((2-(Dimethylamino)-1-(6-methylpyridin-2-yl)ethyl)amino)thianthren-1-yl)-4-morpholino pyridin-2 (1H)-one] | < 100 | < 100 | –
Cc1cnc(C(CCN(C)C)Nc2ccc3c(c2)Sc2cccc(-c4cc(N5CCOCC5)cc(=O)[nH]4)c2S3)cn1 (centres unmarked) [Example 1-22-2, 6-(7-((3-(Dimethylamino)-1-(5-methylpyrazin-2-yl)propyl)amino)thianthren-1-yl)-4-morpholino pyridin-2 (1H)-one] | < 100 | 100 to 500 | –
CC(CN1CCOCC1)Nc1ccc2c(c1)Sc1cccc(-c3cc(N4CCOCC4)cc(=O)[nH]3)c1S2 (single isomer, unassigned) [Example 1-13-2-2, 4-morpholino-6-(7-((1-morpholinopropan-2-yl)amino)thianthren-1-yl)pyridin-2(1H)-one] | < 100 | < 100 | –
Cc1ccc(C(Nc2ccc3c(c2)Sc2cccc(-c4cc(N5CCOCC5)cc(=O)[nH]4)c2S3)C2CC(N(C)C)C2)nc1 (single isomer, unassigned) [Example 1-50-9, 6-(7-(((3-(Dimethylamino)cyclobutyl)(5-methylpyridin-2-yl)methyl)amino)thianthren-1-yl)-4-morpholino pyridin-2 (1H)-one] | < 100 | – | < 100
CC(CNc1ccc2c(c1)Sc1cccc(-c3cc(N4CCOCC4)cc(=O)[nH]3)c1S2)N1CCOCC1 (racemic) [Example 1-9-2-1, 4-Morpholino-6-(7-((2-morpholinopropyl)amino)thianthren-1-yl)pyridin-2(1H)-one] | < 100 | 100 to 500 | –
Cc1ccnc(C(C)Nc2ccc3c(c2)Sc2cccc(-c4cc(N5CCOCC5)cc(=O)[nH]4)c2S3)n1 (centres unmarked) [Example 1-12-69, 6-(7-((1-(4-Methylpyrimidin-2-yl)ethyl)amino)thianthren-1-yl)-4-morpholino pyridin-2(1H)-one] | < 100 | < 100 | –
CNCC(Nc1ccc2c(c1)Sc1cccc(-c3cc(N4CCOCC4)cc(=O)[nH]3)c1S2)c1cccc(C)n1 (centres unmarked) [Example 1-19-1, 6-(7-((2-(Methylamino)-1-(6-methylpyridin-2-yl)ethyl)amino)thianthren-1-yl)-4-morpholinopyridin-2(1H)-one] | < 100 | 100 to 500 | –
Cc1cccc(C(CO)Nc2ccc3c(c2)Sc2cccc(-c4cc(N5CCOCC5)cc(=O)[nH]4)c2S3)n1 (centres unmarked) [Example 1-12-71, 6-(7-((2-Hydroxy-1-(6-methylpyridin-2-yl)ethyl)amino)thianthren-1-yl)-4-morpholino pyridin-2(1H)-one] | < 100 | 100 to 500 | –
Cc1cccc(C(Nc2ccc3c(c2)Sc2cccc(-c4cc(N5CCOCC5)cc(=O)[nH]4)c2S3)C2CCN(C)C2)n1 (single isomer, unassigned) [Example 1-22-7, 6-(7-(((6-Methylpyridin-2-yl)(1-methylpyrrolidin-3-yl)methyl)amino)thianthren-1-yl)-4-morpholino pyridin-2 (1H)-one] | < 100 | – | < 100
O=c1cc(N2CCOCC2)cc(-c2cccc3c2Oc2ccc(NCc4cncc(F)c4)cc2S3)[nH]1 [Example 4-8-12, 6-(8-(((5-Fluoropyridin-3-yl)methyl)amino)phenoxathiin-4-yl)-4-morpholino pyridin-2(1H)-one] | < 100 | 100 to 500 | –
O=c1cc(N2CCOCC2)cc(-c2cccc3c2Oc2ccc(NCc4cncc(C5C=CCC5)c4)cc2C3)[nH]1 (centres unmarked) [Example 2-2-60, 6-(7-(((5-(Cyclopent-2-en-1-yl)pyridin-3-yl)methyl)amino)-9H-xanthen-4-yl)-4-morpholino pyridin-2(1H)-one] | < 100 | 500 to 2000 | –
O=c1cc(N2CCOCC2)cc(-c2cccc3c2Oc2ccc(NC4CCN(CCc5ccccc5)CC4)cc2S3)[nH]1 [Example 4-10, 4-Morpholino-6-(8-((1-phenethylpiperidin-4-yl)amino)phenoxathiin-4-yl)pyridin-2(1H)-one] | < 100 | 100 to 500 | –
Cc1ccnc(C(C)Nc2ccc3c(c2)Sc2cccc(-c4cc(N5CCOCC5)cc(=O)[nH]4)c2S3)n1 (single isomer, unassigned) [Example 1-12-144-1, 6-(7-((1-(4-methylpyrimidin-2-yl)ethyl)amino)thianthren-1-yl)-4-morpholinopyridin-2(1H)-one] | < 100 | < 100 | –
CCN(C)CCC(Nc1ccc2c(c1)Sc1cccc(-c3cc(N4CCOCC4)cc(=O)[nH]3)c1S2)c1cccc(C)n1 (centres unmarked) [Example 1-23-1, 6-(7-((3-(ethyl(methyl)amino)-1-(6-methylpyridin-2-yl)propyl)amino)thianthren-1-yl)-4-morpholinopyridin-2(1H)-one] | < 100 | 100 to 500 | –
O=c1cc(N2CCOCC2)cc(-c2cccc3c2Sc2ccc(N[C@@H]4CCCC[C@H]4N4CCOCC4)cc2S3)[nH]1 [Example 1-48-1, 4-Morpholino-6-(7-(((1R,2R)-2-morpholinocyclohexyl)amino)thianthren-1-yl)pyridin-2(1H)-one] | < 100 | 100 to 500 | –
Cc1cncc(C(C)Nc2ccc3c(c2)Sc2cccc(-c4cc(N5CCOCC5)cc(=O)[nH]4)c2S3)n1 (centres unmarked) [Example 1-12-73, 6-(7-((1-(6-Methylpyrazin-2-yl)ethyl)amino)thianthren-1-yl)-4-morpholino pyridin-2 (1H)-one] | < 100 | < 100 | –
N#Cc1cccc(CNc2ccc3c(c2)Sc2cccc(-c4cc(N5CCOCC5)cc(=O)[nH]4)c2O3)n1 [Example 4-4-25, 6-(((6-(4-Morpholino-6-oxo-1,6-dihydropyridin-2-yl)phenoxathiin-2-yl)amino)methyl)picolinonitrile] | < 100 | 500 to 2000 | –

Source: patent US9586951B2 (FUJIFILM Corporation, priority 2013, dated 2017)
